Measured values: PubChem BioAssay AID1963982 (Molecular Pharmacology Branch, DTP, NCI, 2024)

Test system: 313798-341-R-J2-PDC spheroids, viability
Test: Anticancer human tumor 313798-341-R-J2-PDC patient-derived cervical squamous cell carcinoma cell line growth inhibition [PI3K]
Settings: spheroids with HUVEC and MSC; for IC50: curve of first compound; for viability, T/C: stronger effect = lower value; active means viability on the fitted dose curve at most 10% of control; inactive means the rest
In short: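 Stroma-containing spheroids: tumor line, pooled-donor HUVEC, hMSC. Treatments: targeted agents with PI3K inhibitors. Dosing: clinically relevant, half-log spacing, 10 microM ceiling without known Cmax. Read-out: cell viability.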
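Further: spheroids exposed to compounds for seven days.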
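Wherever viability, T/C is given: 100% = DMSO vehicle control viability.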

Cn1ncc(Cl)c1-c1cc(C(=O)NC(CN)Cc2cccc(F)c2)sc1Cl (configuration not stated) + CC(Nc1ccc2c(c1)OCCn1cc(N3C(=O)OCC3C(F)F)nc1-2)C(N)=O
0.19 µM: IC50 (second compound 1 µM)
0.889 µM: IC50 (second compound 0.0316 µM)
0.822 µM: IC50 (second compound 0.1 µM)
inactive: viability, T/C (second compound 0.00316 µM, first compound 0.0316 µM) 117% | viability, T/C (second compound 0.00316 µM, first compound 0.1 µM) 91.3% | viability, T/C (second compound 0.00316 µM, first compound 0.316 µM) 94.2% | viability, T/C (second compound 0.00316 µM, first compound 1 µM) 48.3% | viability, T/C (second compound 0.00316 µM, first compound 3.16 µM) 34.4% | viability, T/C (second compound 0.00316 µM, first compound 10 µM) 38.6% | viability, T/C (second compound 0.01 µM, first compound 0.0316 µM) 97.3% | viability, T/C (second compound 0.01 µM, first compound 0.1 µM) 102% | viability, T/C (second compound 0.01 µM, first compound 0.316 µM) 75.5% | viability, T/C (second compound 0.01 µM, first compound 1 µM) 52.4% | viability, T/C (second compound 0.01 µM, first compound 3.16 µM) 38.1% | viability, T/C (second compound 0.01 µM, first compound 10 µM) 35.6% | viability, T/C (second compound 0.0316 µM, first compound 0.0316 µM) 102% | viability, T/C (second compound 0.0316 µM, first compound 0.1 µM) 107% | viability, T/C (second compound 0.0316 µM, first compound 0.316 µM) 84.5% | viability, T/C (second compound 0.0316 µM, first compound 1 µM) 46.8% | viability, T/C (second compound 0.0316 µM, first compound 3.16 µM) 35.1% | viability, T/C (second compound 0.0316 µM, first compound 10 µM) 34.9% | viability, T/C (second compound 0.1 µM, first compound 0.0316 µM) 114% | viability, T/C (second compound 0.1 µM, first compound 0.1 µM) 95.7% | viability, T/C (second compound 0.1 µM, first compound 0.316 µM) 67.6% | viability, T/C (second compound 0.1 µM, first compound 1 µM) 47.4% | viability, T/C (second compound 0.1 µM, first compound 3.16 µM) 35.2% | viability, T/C (second compound 0.1 µM, first compound 10 µM) 36.8% | viability, T/C (second compound 0.316 µM, first compound 0.0316 µM) 74.6% | viability, T/C (second compound 0.316 µM, first compound 0.1 µM) 69.6% | viability, T/C (second compound 0.316 µM, first compound 0.316 µM) 57.9% | viability, T/C (second compound 0.316 µM, first compound 1 µM) 41.4% | viability, T/C (second compound 0.316 µM, first compound 3.16 µM) 32.8% | viability, T/C (second compound 0.316 µM, first compound 10 µM) 35.7% | viability, T/C (second compound 1 µM, first compound 0.0316 µM) 59.8% | viability, T/C (second compound 1 µM, first compound 0.1 µM) 56.1% | viability, T/C (second compound 1 µM, first compound 0.316 µM) 44.7% | viability, T/C (second compound 1 µM, first compound 1 µM) 37.2% | viability, T/C (second compound 1 µM, first compound 3.16 µM) 28.7% | viability, T/C (second compound 1 µM, first compound 10 µM) 32.2%
1.04 µM: IC50 (second compound 0.01 µM)
0.97 µM: IC50 (second compound 0.00316 µM)
0.535 µM: IC50 (second compound 0.316 µM)
